Laboratory results: US9150840B2, “Isolated bacterial strain of Achromobacter sp. MTCC 5605 and a highly enantioselective epoxide hydrolase isolated therefrom” (COUNCIL OF SCIENTIFIC & INDUSTRIAL RESEARCH, priority 2011, dated 2015)

system: Achromobacter sp. MTCC 5605; assay: Antibiotic sensitivity of the isolated strain; type: cell-based; conditions: not given

Compound	Antibiotic sensitivity
C[C@@H]1[C@H](O)[C@@H](C)/C=C/C=C/C=C/C=C/C=C/C=C/C=C/[C@H](O[C@@H]2O[C@H](C)[C@@H](O)[C@H](N)[C@@H]2O)C[C@@H]2O[C@](O)(C[C@@H](O)C[C@@H](O)[C@H](O)CC[C@@H](O)C[C@@H](O)CC(=O)O[C@H]1C)C[C@H](O)[C@H]2C(=O)O [Amphotericin B]	Resistant to Penicillin-G (10 units), Methicillin (5 mcg),
O=C(N[C@H](CO)[C@H](O)c1ccc([N+](=O)[O-])cc1)C(Cl)Cl [Chloramphenicol]	Sensitive to Erythromycin (10 mcg), Gentamycin (10 mcg),
O=C(O)c1cn(C2CC2)c2cc(N3CCNCC3)c(F)cc2c1=O [Ciprofloxacin]	Sensitive to Erythromycin (10 mcg), Gentamycin (10 mcg),
CC[C@H]1OC(=O)[C@H](C)[C@@H](O[C@H]2C[C@@](C)(OC)[C@@H](O)[C@H](C)O2)[C@H](C)[C@@H](O[C@@H]2O[C@H](C)C[C@H](N(C)C)[C@H]2O)[C@](C)(O)C[C@@H](C)C(=O)[C@H](C)[C@@H](O)[C@]1(C)O [Erythromycin]	Sensitive to Erythromycin (10 mcg), Gentamycin (10 mcg),
COc1cccc(OC)c1C(=O)N[C@@H]1C(=O)N2[C@@H]1SC(C)(C)[C@@H]2C(=O)O [Methicillin]	Resistant to Penicillin-G (10 units), Methicillin (5 mcg),
C[C@@H]1[C@H](O)[C@@H](C)/C=C/C=C/CC/C=C/C=C/C=C/C=C/C(O[C@H]2O[C@H](C)[C@@H](O)[C@H](N)[C@@H]2O)CC2O[C@](O)(CC(O)C(O)CCC(O)CC(O)CC(O)CC(=O)O[C@H]1C)CC(O)C2C(=O)O (stereo partly drawn) [Nystatin]	Resistant to Penicillin-G (10 units), Methicillin (5 mcg),
CC1(C)S[C@@H]2[C@H](NC(=O)Cc3ccccc3)C(=O)N2[C@H]1C(=O)O [Penicillin-G]	Resistant to Penicillin-G (10 units), Methicillin (5 mcg),

same assay, conditions: amount per antibiotic as printed (5-30 mcg, 10 units)

Compound	Antibiotic sensitivity
Gentamycin	Sensitive to Erythromycin (10 mcg), Gentamycin (10 mcg),

system: epoxide hydrolase from Achromobacter sp. MTCC 5605; assay: not given; type: biochemical; conditions: pH 8

Compound	Inhibition of epoxide hydrolase activity
O[C@H](CS)[C@H](O)CS (racemic) [dithiothreitol]	none of them showed any inhibition
CCCCCCCCCCCCCCCC[N+](C)(C)C.[Br-] [cetyltrimethylammonium bromide]	none of them showed any inhibition
CCOC(=O)OC(=O)OCC [diethyl pyrocarbonate]	none of them showed any inhibition
O=C(O)CN(CCN(CC(=O)O)CC(=O)O)CC(=O)O [ethylenediaminetetraacetic acid]	none of them showed any inhibition
NO [hydroxylamine]	none of them showed any inhibition
NNc1ccccc1 [phenyl hydrazine]	none of them showed any inhibition
CCCCCCCCCCCCOS(=O)(=O)[O-].[Na+] [sodium dodecyl sulphate]	none of them showed any inhibition
